The results in this text go back to US8377685B2, “Microfluidic device having stable static gradient for analyzing chemotaxis” (priority 2007, dated 2013).

In this assay the test system is primary human neutrophils. It counts as cell-based. On the procedure:
(§1) Each channel was used of one of four different conditions under investigation: 1) Media control, 2) uniform chemo-attractant, 3) chemo-attractant gradient and 4) chemo-attractant gradient with inhibitor. For conditions 1 and 3 each channel network was wick-filled with EGM2MV cell culture media via the source input port. For condition 2 the channel network was wick-filled with EGM2MV cell culture media containing 10 nM formyl-Met-Leu-Phe (fMLP, Sigma-Aldrich). For condition 4 the channel network was wick-filled with EGM2MV cell culture media containing 5 μM Latrunculin B (Sigma-Aldrich). Next, for conditions 3 and 4, a 1.2 μL drop of 1 μM fMLP was added to the source input using a handheld pipette. For condition 4 the fMLP solution also contained Latrunculin B at the same concentration as the media to ensure a uniform concentration of the inhibitor during the study. This volume flowed into the source volume via passive pumping. Lastly, for all four conditions, a 1.5 μL drop of freshly isolated primary neutrophils at roughly at a concentration of roughly 5,000 cells/μL were added to the cell addition port.
as §1, with “Human neutrophil cell culture media and chemo-attractant solution were prepared using conventional protocols. (See, Nuzzi P A at al., Analysis of neutrophil chemotaxis, Methods in Molecular Biology 370:23-26, 2007). Primary human neutrophils were acquired from donors under approved protocol. (See University of Wisconsin Institutional Review Board and National Institutes of Health Protection concerning protection of human subjects regulations). Four channel networks in a polystyrene device were prepared. Each” for “Each”, “used to test” for “used of”, “different conditions:” for “different conditions under investigation:”

Entries after “also recorded” stand apart in the source; their conditions may differ.

For the compound `C/C1=C/C(=O)O[C@@H]2C[C@@H](CC[C@H](C)/C=C\CC1)O[C@@](O)([C@@H]1CSC(=O)N1)C2` [Latrunculin B], the “direction of displacement vectors of cells (preference for migrating up the fMLP gradient)” value (fMLP gradient with uniform 5 μM Latrunculin B, 52 minutes) is recorded as “abolished”. Besides, for the setting “fMLP gradient with uniform 5 μM Latrunculin B, cells tracked over 52 minutes”, the “mean total displacement of cells (migration up an fMLP gradient)” value was “strongly inhibited”.
In the case of formyl-Met-Leu-Phe [fMLP], the “direction of displacement vectors of cells” value is reported as “slight preference for migrating up the channel; also recorded: strong preference for migrating in the direction of increasing concentration of the gradient” and the “mean total displacement of cells” value is recorded as “migrate further; also recorded: migrated further still”.
